Reference: ChEMBL document CHEMBL3045554, “Synthesis and antimicrobial screening of N-(1-methyl-1H-pyrazole-4-carbonyl)-thiourea derivatives” (2012)
In brackets after ≈: the same amount, converted by molar mass. Activity calls are given as the source filed them. The calls are words filed in the database; no cut-off is given here.

Assays:
Acinetobacter baumannii [1] = experiment: Effect on amylase production in Acinetobacter baumannii 15896 after 24 hr by starch hydrolysis assay; assay type: functional, organism-based
Staphylococcus aureus [2] = experiment: Effect on amylase production in Staphylococcus aureus after 24 hr by starch hydrolysis assay; assay type: functional, organism-based
Escherichia coli [3] = experiment: Antimicrobial activity against Escherichia coli 637/2007 by microdilution method; assay type: functional
Klebsiella pneumoniae [4] = experiment: Antimicrobial activity against Klebsiella pneumoniae 126/2007 by microdilution method; assay type: functional
Acinetobacter baumannii [5] = experiment: Antimicrobial activity against Acinetobacter baumannii 15896 by microdilution method; assay type: functional
Pseudomonas aeruginosa [6] = experiment: Antimicrobial activity against Pseudomonas aeruginosa 5541 by microdilution method; assay type: functional
Staphylococcus aureus [7] = experiment: Antimicrobial activity against Staphylococcus aureus by microdilution method; assay type: functional
Enterococcus faecalis [8] = experiment: Antimicrobial activity against Enterococcus faecalis 13773 by microdilution method; assay type: functional
Bacillus subtilis [9] = experiment: Antimicrobial activity against Bacillus subtilis 10.10.2006 by microdilution method; assay type: functional
Escherichia coli [10] = experiment: Effect on esculethol production in Escherichia coli 637/2007 after 24 hr by esculin hydrolysis test; assay type: functional, organism-based
Klebsiella pneumoniae [11] = experiment: Effect on esculethol production in Klebsiella pneumoniae 126/2007 after 24 hr by esculin hydrolysis test; assay type: functional, organism-based
Acinetobacter baumannii [12] = experiment: Effect on esculethol production in Acinetobacter baumannii 15896 after 24 hr by esculin hydrolysis test; assay type: functional, organism-based
Pseudomonas aeruginosa [13] = experiment: Effect on esculethol production in Pseudomonas aeruginosa 5541 after 24 hr by esculin hydrolysis test; assay type: functional, organism-based
Staphylococcus aureus [14] = experiment: Effect on esculethol production in Staphylococcus aureus after 24 hr by esculin hydrolysis test; assay type: functional, organism-based
Enterococcus faecalis [15] = experiment: Effect on esculethol production in Enterococcus faecalis 13773 after 24 hr by esculin hydrolysis test; assay type: functional, organism-based
Bacillus subtilis [16] = experiment: Effect on esculethol production in Bacillus subtilis 10.10.2006 after 24 hr by esculin hydrolysis test; assay type: functional, organism-based
Escherichia coli [17] = experiment: Effect on DNase production in Escherichia coli 637/2007 after 24 hr; assay type: functional, organism-based
Klebsiella pneumoniae [18] = experiment: Effect on DNase production in Klebsiella pneumoniae 126/2007 after 24 hr; assay type: functional, organism-based
Acinetobacter baumannii [19] = experiment: Effect on DNase production in Acinetobacter baumannii 15896 after 24 hr; assay type: functional, organism-based
Pseudomonas aeruginosa [20] = experiment: Effect on DNase production in Pseudomonas aeruginosa 5541 after 24 hr; assay type: functional, organism-based
Staphylococcus aureus [21] = experiment: Effect on DNase production in Staphylococcus aureus after 24 hr; assay type: functional, organism-based
Bacillus subtilis [22] = experiment: Effect on DNase production in Bacillus subtilis 10.10.2006 after 24 hr; assay type: functional, organism-based
Enterococcus faecalis [23] = experiment: Effect on DNase production in Enterococcus faecalis 13773 after 24 hr; assay type: functional, organism-based
Escherichia coli [24] = experiment: Effect on lipase production in Escherichia coli 637/2007 after 7 days; assay type: functional, organism-based
Klebsiella pneumoniae [25] = experiment: Effect on lipase production in Klebsiella pneumoniae 126/2007 after 7 days; assay type: functional, organism-based
Acinetobacter baumannii [26] = experiment: Effect on lipase production in Acinetobacter baumannii 15896 after 7 days; assay type: functional, organism-based
Pseudomonas aeruginosa [27] = experiment: Effect on lipase production in Pseudomonas aeruginosa 5541 after 7 days; assay type: functional, organism-based
Staphylococcus aureus [28] = experiment: Effect on lipase production in Staphylococcus aureus after 7 days; assay type: functional, organism-based
Enterococcus faecalis [29] = experiment: Effect on lipase production in Enterococcus faecalis 13773 after 7 days; assay type: functional, organism-based
Escherichia coli [30] = experiment: Effect on amylase production in Escherichia coli 637/2007 after 24 hr by starch hydrolysis assay; assay type: functional, organism-based
Bacillus subtilis [31] = experiment: Effect on lipase production in Bacillus subtilis 10.10.2006 after 7 days; assay type: functional, organism-based
Klebsiella pneumoniae [32] = experiment: Effect on amylase production in Klebsiella pneumoniae 126/2007 after 24 hr by starch hydrolysis assay; assay type: functional, organism-based
Escherichia coli [33] = experiment: Inhibition of caseinase production in Escherichia coli 637/2007 after 24 hr by casein hydrolysis assay; assay type: functional, organism-based
Klebsiella pneumoniae [34] = experiment: Inhibition of caseinase production in Klebsiella pneumoniae 126/2007 after 24 hr by casein hydrolysis assay; assay type: functional, organism-based
Acinetobacter baumannii [35] = experiment: Inhibition of caseinase production in Acinetobacter baumannii 15896 after 24 hr by casein hydrolysis assay; assay type: functional, organism-based
Pseudomonas aeruginosa [36] = experiment: Inhibition of caseinase production in Pseudomonas aeruginosa 5541 after 24 hr by casein hydrolysis assay; assay type: functional, organism-based
Staphylococcus aureus [37] = experiment: Inhibition of caseinase production in Staphylococcus aureus after 24 hr by casein hydrolysis assay; assay type: functional, organism-based
Enterococcus faecalis [38] = experiment: Inhibition of caseinase production in Enterococcus faecalis 13773 after 24 hr by casein hydrolysis assay; assay type: functional, organism-based
Bacillus subtilis [39] = experiment: Inhibition of caseinase production in Bacillus subtilis 10.10.2006 after 24 hr by casein hydrolysis assay; assay type: functional, organism-based
Escherichia coli [40] = experiment: Inhibition of lecithinase production in Escherichia coli 637/2007 after 7 days; assay type: functional, organism-based
Klebsiella pneumoniae [41] = experiment: Inhibition of lecithinase production in Klebsiella pneumoniae 126/2007 after 7 days; assay type: functional, organism-based
Acinetobacter baumannii [42] = experiment: Inhibition of lecithinase production in Acinetobacter baumannii 15896 after 7 days; assay type: functional, organism-based
Pseudomonas aeruginosa [43] = experiment: Inhibition of lecithinase production in Pseudomonas aeruginosa 5541 after 7 days; assay type: functional, organism-based
Staphylococcus aureus [44] = experiment: Inhibition of lecithinase production in Staphylococcus aureus after 7 days; assay type: functional, organism-based
Enterococcus faecalis [45] = experiment: Inhibition of lecithinase production in Enterococcus faecalis 13773 after 7 days; assay type: functional, organism-based
Bacillus subtilis [46] = experiment: Inhibition of lecithinase production in Bacillus subtilis 10.10.2006 after 7 days; assay type: functional, organism-based
Enterococcus faecalis [47] = experiment: Effect on amylase production in Enterococcus faecalis 13773 after 24 hr by starch hydrolysis assay; assay type: functional, organism-based
Bacillus subtilis [48] = experiment: Effect on amylase production in Bacillus subtilis 10.10.2006 after 24 hr by starch hydrolysis assay; assay type: functional, organism-based
Pseudomonas aeruginosa [49] = experiment: Effect on amylase production in Pseudomonas aeruginosa 5541 after 24 hr by starch hydrolysis assay; assay type: functional, organism-based
Pseudomonas aeruginosa [50] = experiment: Effect on gelatinase production in Pseudomonas aeruginosa 5541 after 24 hr by gelatin hydrolysis test; assay type: functional, organism-based
Enterococcus faecalis [51] = experiment: Effect on gelatinase production in Enterococcus faecalis 13773 after 24 hr by gelatin hydrolysis test; assay type: functional, organism-based
Bacillus subtilis [52] = experiment: Effect on gelatinase production in Bacillus subtilis 10.10.2006 after 24 hr by gelatin hydrolysis test; assay type: functional, organism-based
Escherichia coli [53] = experiment: Effect on gelatinase production in Escherichia coli 637/2007 after 24 hr by gelatin hydrolysis test; assay type: functional, organism-based
Klebsiella pneumoniae [54] = experiment: Effect on gelatinase production in Klebsiella pneumoniae 126/2007 after 24 hr by gelatin hydrolysis test; assay type: functional, organism-based
Acinetobacter baumannii [55] = experiment: Effect on gelatinase production in Acinetobacter baumannii 15896 after 24 hr by gelatin hydrolysis test; assay type: functional, organism-based
Staphylococcus aureus [56] = experiment: Effect on gelatinase production in Staphylococcus aureus after 24 hr by gelatin hydrolysis test; assay type: functional, organism-based

For `CCc1ccccc1NC(=S)NC(=O)c1cnn(C)c1`, the Activity (Acinetobacter baumannii [1]) was “inactive”, the Activity (Staphylococcus aureus [2]) was “inactive” and the MIC (Escherichia coli [3]) was over 1000 µg/mL. It also gave an MIC (Klebsiella pneumoniae [4]) of 1000 µg/mL (≈ 3470 µM), an MIC (Acinetobacter baumannii [5]) of 250 µg/mL (≈ 867 µM) and an MIC (Pseudomonas aeruginosa [6]) of 500 µg/mL (≈ 1730 µM). The MIC (Staphylococcus aureus [7]) was 250 µg/mL (≈ 867 µM), the MIC (Enterococcus faecalis [8]) was over 1000 µg/mL and the MIC (Bacillus subtilis [9]) was 1000 µg/mL (≈ 3470 µM). For the same molecule, the Activity (Escherichia coli [10]) was “inactive”, the Activity (Klebsiella pneumoniae [11]) was “inactive” and the Activity (Acinetobacter baumannii [12]) was “inactive”. The Activity (Pseudomonas aeruginosa [13]) was “inactive”, the Activity (Staphylococcus aureus [14]) was “inactive” and the Activity (Enterococcus faecalis [15]) was “inactive”. The Activity (Bacillus subtilis [16]) was “inactive”, the Activity (Escherichia coli [17]) was “inactive” and the Activity (Klebsiella pneumoniae [18]) was “inactive”. For the same molecule, the Activity (Acinetobacter baumannii [19]) was “inactive”, the Activity (Pseudomonas aeruginosa [20]) was “inactive” and the Activity (Staphylococcus aureus [21]) was “inactive”. The Activity (Bacillus subtilis [22]) was “inactive”, the Activity (Enterococcus faecalis [23]) was “inactive” and the Activity (Escherichia coli [24]) was “inactive”. For the same molecule, the Activity (Klebsiella pneumoniae [25]) was “inactive”, the Activity (Acinetobacter baumannii [26]) was “inactive” and the Activity (Pseudomonas aeruginosa [27]) was “inactive”. For the same molecule, the Activity (Staphylococcus aureus [28]) was “inactive”, the Activity (Enterococcus faecalis [29]) was “inactive” and the Activity (Escherichia coli [30]) was “inactive”. The Activity (Bacillus subtilis [31]) was “inactive”, the Activity (Klebsiella pneumoniae [32]) was “inactive” and the inhibition (Escherichia coli [33]) was “inactive”. The inhibition (Klebsiella pneumoniae [34]) was “inactive”, the inhibition (Acinetobacter baumannii [35]) was “inactive” and the inhibition (Pseudomonas aeruginosa [36]) was “inactive”. For the same molecule, the inhibition (Staphylococcus aureus [37]) was “inactive”, the inhibition (Enterococcus faecalis [38]) was “inactive” and the inhibition (Bacillus subtilis [39]) was “inactive”. The inhibition (Escherichia coli [40]) was “inactive”, the inhibition (Klebsiella pneumoniae [41]) was “Active” and the inhibition (Acinetobacter baumannii [42]) was “inactive”. The inhibition (Pseudomonas aeruginosa [43]) was “inactive”, the inhibition (Staphylococcus aureus [44]) was “inactive” and the inhibition (Enterococcus faecalis [45]) was “inactive”. For the same molecule, the inhibition (Bacillus subtilis [46]) was “inactive”, the Activity (Enterococcus faecalis [47]) was “inactive” and the Activity (Bacillus subtilis [48]) was “inactive”. For the same molecule, the Activity (Pseudomonas aeruginosa [49]) was “inactive”, the Activity (Pseudomonas aeruginosa [50]) was “inactive” and the Activity (Enterococcus faecalis [51]) was “inactive”. For the same molecule, the Activity (Bacillus subtilis [52]) was “inactive”, the Activity (Escherichia coli [53]) was “inactive” and the Activity (Klebsiella pneumoniae [54]) was “inactive”. For the same molecule, the Activity (Acinetobacter baumannii [55]) was “inactive” and the Activity (Staphylococcus aureus [56]) was “inactive”.
